The test deals with antigen specific cytokine producing cells in splenocytes. The test is described as follows: Imiquimod given with particle-mediated DNA vaccination (pVAC1.ova.cyt) of mice; cytokine producing splenocytes by ELISPOT. Conditions: imiquimod 30 mg/kg, single subcutaneous injection at the immunisation site, immediately following vaccination. Format: in vivo, C57B1/6 mice.

Description: To examine whether the timing of imiquimod administration could affect the numbers of antigen specific cytokine producing cells in splenocytes pVAC1.ova.cyt (prepared according to example 1) was administered by particle mediated gene transfer (0.05 μg/cartridge) into the skin of mice.
If given, immediately following vaccination imiquimod (prepared as a suspension in vehicle which comprised 0.3% (w/v) methylcellulose and 0.1% (v/v) Tween in sterile water) was administered by a single subcutaneous injection (0.05 ml/10 g body weight formulated to provide a dose of 30 mg/kg)) at the immunisation site. Plasmid and imiquimod controls were empty vector (pVAC1) and vehicle, respectively.
All mice received pVAC1. ova.cyt or empty vehicle pVAC1 at day 0 and week 4. One group of mice received imiquimod at day 0 only (Im prime), a second group of mice received imiquimod at week 4 only (Im boost) and another group received imiquimod at day 0 and week 4 (Im pr+boost).
At day 12 spl enocytes were collected and IFN-γ and IL-2 producing cells were measured by ELISPOT.

In the case of `CC(C)Cn1cnc2c(N)nc3ccccc3c21` [Imiquimod, imiquimod], the “Magnitude of the cytotoxic T cell response to a nucleic acid vaccine” value is “Increases the Magnitude of the Cytotoxic T Cell Response”.

Source of the values: patent US20080188469A1, “VACCINATION” (Glaxo Group Limited, priority 2002, published 2008).
